Settings in all cases: 4 mM UDP-glucose, pH 7.5, 30 °C, 10 mM DTT
Data set [1] concerns T1, UGT72AD1.
T1 construct: full-length ORF cloned from leaf cDNA; MBP fusion (pMAL-c2x), E. coli Novablue, maltose-resin purified
Kind of data set: HPLC glucosylation assay. The class given is biochemical, Lotus japonicus.

Substrate in data set [2]: O=c1c(O)c(-c2cc(O)c(O)c(O)c2)oc2cc(O)cc(O)c12
The data set can be described thus: purified protein.

Substrate in data set [3]: O=c1c(O)c(-c2ccc(O)cc2)oc2cc(O)cc(O)c12
The data set can be described thus: HPLC glucosylation assay. The class given is biochemical, Lotus japonicus. From the text: (§1) HPLC glucosylation assay on UGT72Z2 | UGT72Z2 ...

Substrate in data set [4]: O=c1c(O)c(-c2ccc(O)c(O)c2)oc2cc(O)cc(O)c12
Kind of data set: HPLC glucosylation assay. The class given is biochemical, Lotus japonicus.
Source text: as §1

Broadly, the Km is the substrate concentration at which the rate is half of its maximum. For the molecule `O=c1c(O)c(-c2ccc(O)cc2)oc2cc(O)cc(O)c12` [kaempferol], the Km in data set [1] is 330 µM.
For the molecule `O=c1c(O)c(-c2cc(O)c(O)c(O)c2)oc2cc(O)cc(O)c12` [myricetin], the Km in data set [1] is 390 µM.
`O=c1c(O)c(-c2ccc(O)c(O)c2)oc2cc(O)cc(O)c12` [quercetin]: the Michaelis constant (Km) in data set [1] amounted to 310 µM.

B1: UGT72Z2 (Lotus japonicus) (protein)
chain: MAKTIHIAAVSIPAFSHQASIIEFCKKLLHLHHHYHVTCIFPTIDAPVAATLKLLQSLPSTIDFKFLPPVNKQDLPQDVSPAVQIQLAVSQSMPSFRDTMRSLHSTTPHLTALIADPFANEALEIGKEFNLLSYIYFPPSAMTLSLFLHLPKLHEEVSCEYRDLTEPIQIPGCIPIQGQDLPEHFQDRSSLAYDLILKRCKRFSLADGFLVNSFLELEEGTVKALQEQNRGNRGENRGNRGKNRGNRDSPVFLVGPVIQTGPSSEPKGSESEYCVRWLENQIPKSVLYVSFGSGGTLSQEQMNELAFGLELSGQKFLWVVRAPSDSANAAYLGVGNEDPLKFLPSGFIERTKGQGLVIPSWAPQTQILSHSSIGGFLTHCGWNSVLESIVLGVPMITWPLFAEQRMNAVLLTDGVKVALRPKFDENGIVKREEIAVVVKGLMQGEEGNGIHHRIEVLKEAAADALKEDGSSTRALSQFGNQIENFLALK
notes: full-length ORF cloned from leaf cDNA; MBP fusion (pMAL-c2x), E. coli Novablue, maltose-resin purified
Consider B1, for which the Michaelis constant (Km) in data set [2] stood at 46 µM; in data set [3], 40 µM; in data set [4], 68 µM.

The values above are taken from article PMC5444469, “Involvement of three putative glucosyltransferases from the UGT72 family in flavonol glucoside/rhamnoside biosynthesis in Lotus japonicus seeds” (Journal of Experimental Botany, 2016).
